The record followed here is patent US4172941A, “7-[2-[ω-(1,3-Dit hiolan-2-imino)substituted]-acetylamino]cephalosporanic acid derivatives” (Richardson-Merrell Inc., priority 1978, dated 1979).

One assay has as its system Staphylococcus aureus. As to the kind of experiment: in vitro minimal inhibitory concentration, two-fold serial dilutions in trypticase soy broth. As to conditions: 24 hours at 37° C. The class given is cell-based. How it is done: (§1) The following example illustrates the in vitro activity of the compounds of this invention.
(§2) Two-fold serial dilutions of the test compounds are made in trypticase soy broth. A series of tubes of broth containing different concentrations of the test compounds are inoculated with the particular bacterial culture used for in vitro activity. The inoculated tubes are examined for the inhibition of bacterial growth after 24 hours of incubation at 37° C. The following table summarizes the minimal inhibitory concentration (MIC) for various bacterial test cultures using the following compounds: […]

Assay [1] relates to Salmonella schottmuelleri. The description is as above. It counts as cell-based. As to conditions: 24 hours at 37° C. On the procedure: as §1, §2
A further assay concerns Escherichia coli. The description is as above. The class given is cell-based. The following applies: 24 hours at 37° C. How it is done: as §1, §2
The subject of assay [2] is Streptococcus pyogenes. Described as above. The class given is cell-based. The following applies: 24 hours at 37° C. How it is done: as §1, §2
A further assay deals with Diplococcus pneumonae. Described as above. The class given is cell-based. As to conditions: 24 hours at 37° C. On the procedure: as §1, §2
Assay [3] has as its system Streptococcus pyogenes. The experiment in a line: in vivo protection of mice challenged with a fatal bacterial infection. As to conditions: sc, subcutaneous, 1 and 4 hours after challenge, dose per treatment protecting fifty percent. How it is done: (§3) The following example illustrates the in vivo activity of the compounds of this invention.
(§4) Several groups of 10 mice are challenged with a fatal bacterial infection. Various dose levels of the test compound are administered orally or subcutaneously to separate groups of these animals 1 and 4 hours after challenge. After three of four days, depending upon the test organism, the number of survivors are recorded at each dose level and the dose required per treatment to protect fifty percent of the infected mice (ED50) is calculated by the method described by Reed and Muench, Amer. J. Hyg. 27, 493-497 (1938).

The subject of the next assay is Diplococcus pneumoniae. The assay is described as above. The following applies: Streptococcus pneumoniae, 1 and 4 hours after challenge, dose per treatment protecting fifty percent. How it is done: as §3, §4
In another assay the test system is Salmonella schotmuelleri. Described as above. The following applies: sc, subcutaneous, 1 and 4 hours after challenge, dose per treatment protecting fifty percent. On the procedure:
as §3, §4

Broadly, the MIC is the lowest concentration found to suppress growth. A low value points to a more susceptible organism. A word on the ED50: it is the dose at which the effect has come halfway, by size or by number of responders.

In brackets after ≈: the same amount, converted by molar mass.

Turning to `CC(=O)OCC1=C(C(=O)O)N2C(=O)C(NC(=O)CN=C3SCCS3)C2SC1` (stereo not drawn) [Compound A, 7-[2-(1,3-dithiolan-2-imino)acetylamino]cephalosporanic acid], the MIC against Staphylococcus aureus was 0.4 µg/mL (≈ 0.927 µM); in assay [1], 12.5 µg/mL (≈ 29 µM); with Escherichia coli it was 50 µg/mL (≈ 116 µM); against Streptococcus pyogenes [2], 0.4 µg/mL (≈ 0.927 µM); with Diplococcus pneumonae it was 0.1 µg/mL (≈ 0.232 µM). This compound also yielded an ED50 in the assay with Streptococcus pyogenes [3] of 15.3 mg/kg.
For `CC1=C(C(=O)O)N2C(=O)C(NC(=O)C(N=C3SCCS3)c3ccccc3)C2SC1` (stereo not drawn) [Compound B, 7-[2-(1,3-dithiolan-2-imino)-2-phenylacetylamino]desacetoxycephalosporanic acid], the minimum inhibitory concentration (MIC) against Staphylococcus aureus was 25 µg/mL (≈ 55.6 µM); in assay [1], > 100 µg/mL; against Escherichia coli it was > 100 µg/mL; against Streptococcus pyogenes [2], 6.2 µg/mL (≈ 13.8 µM); with Diplococcus pneumonae, 12.5 µg/mL (≈ 27.8 µM). The compound also registered an ED50 with Streptococcus pyogenes [3] of 48 mg/kg.
For `CC1=C(C(=O)O)N2C(=O)C(NC(=O)C(N)c3ccc(N=C4SCCS4)cc3)C2SC1` (stereo not drawn) [Compound C, 7-[2-amino-2-[p-(1,3-dithiolan-2-imino)phenyl]acetylamino]desacetoxycephalosporanic acid], the MIC against Staphylococcus aureus was 3.1 µg/mL (≈ 6.67 µM); in assay [1], > 100 µg/mL; against Escherichia coli it was > 100 µg/mL; in the assay with Streptococcus pyogenes [2] it was ≤ 0.05 µg/mL; against Diplococcus pneumonae, ≤ 0.05 µg/mL. In addition, the ED50 in the assay with Diplococcus pneumoniae (po, per os) was 4.1 mg/kg; in the assay with Diplococcus pneumoniae (sc, subcutaneous), 5 mg/kg; in the assay with Salmonella schotmuelleri it was > 100 mg/kg; in the assay with Streptococcus pyogenes [3] it was 0.5 mg/kg.
`CC(=O)OCC1=C(C(=O)O)N2C(=O)C(NC(=O)C(O)c3ccc(N=C4SCCS4)cc3)C2SC1` (stereo not drawn) [Compound D, 7-[2-[p-(1,3-dithiolan-2-imino)phenyl]-2-hydroxyacetylamino]cephalosporanic acid]: the minimal inhibitory concentration (MIC) against Staphylococcus aureus is 0.4 µg/mL (≈ 0.764 µM); in assay [1], 50 µg/mL (≈ 95.5 µM); in the assay on Escherichia coli, 200 µg/mL (≈ 382 µM); in the assay with Streptococcus pyogenes [2], < 0.05 µg/mL; in the assay with Diplococcus pneumonae, < 0.05 µg/mL. In the assay with Streptococcus pyogenes [3], this compound came in with a 50% effective dose (ED50) of 2.2 mg/kg.
